Test results taken from patent US11111267B2 (priority 2020, dated 2021).
Entries after “also recorded” stand apart in the source; their conditions may differ. Like-named read-outs stand apart in the source and are kept apart here.

Assays:
[1] = system: Hedgehog signaling pathway; assay: Gli luciferase reporter assay in Gli Reporter-NIH3T3 cells (mShh stimulated); type: cell-based; conditions: mShh 1 μg/ml, 27 hours, read-out: IC50 for inhibition of the Hedgehog signaling pathway
Procedure: Hedgehog signaling pathway Gli Reporter-NIH3T3 cells were cultured in DMEM medium with 10% Calf serum, 1% Penn-strep, 500 μg/ml of Geneticin.
To perform the Gli luciferase reporter assay, Gli Reporter—NIH3T3 cells were seeded at 25,000 cells per well into white clear-bottom 96-well microplate in 100 μl of growth medium. Cells were incubated at 37° C. and 5% CO2 for overnight. Next day remove the medium from wells and add 45 μl of diluted inhibitor in assay medium (Opti-MEM Reduced Serum Medium+0.5% calf serum+1% non-essential amino acids+1 mM Na-pyruvate+10 mM HEPES+1% Pen/Strep) per well. Incubate cells at 37° C. in a CO2 incubator for 2 hours. Then add 5 μl of diluted mShh in assay medium to wells (final [mShh]=1 μg/ml). Add […] of assay medium to cell-free control wells. Cells were treated for 27 hours. […] Luminescence was measured using a luminometer (BioTek Synergy™ 2 microplate reader)
Reporter assays in triplicate were performed at each concentration. The luminescence intensity data were analyzed using the computer software, Graphpad Prism. In the absence of the compound, the luminescence intensity (Lt) in each data set was defined as 100%. In the absence of cells, the luminescence intensity (Lb) in each data set was defined as 0%. […]

[2] = system: A431 xenograft; type: in vivo, BALB/c nude mice
Procedure: (§1) NCI-H2122 cells were cultured in RMPI1640 medium, A431 tumor cells cultured in DMEM medium, all the medium were supplemented with 10% heat inactivated fetal bovine serum, all cells used EDTA containing trypsin, passaged twice a week, incubated at 37° C. in an atmosphere of 5% CO2 in air and cultured.
(§2) 110 BALB/c nude mice, female, 6-8 weeks old, 18-22 g in body weight, were purchased from Shanghai Laboratory Animal Center (SLAC, Shanghai, China). The mice were kept in individually ventilated cage (IVC) systems at constant temperature and humidity, with 20.5-24.5° C. for temperature, 40-75% for humidity. With 4 animals in each cage, the size ogf the cage is 325 mm×210 mm×180 mm. The bedding material is corn cob, which is changed twice per week. Animals had free access to irradiation sterilized dry granule food and water during the entire study period. The food and water were changed twice per week. The identification labels for each cage contain the following information: number of animals, sex, strain, and date received treatment, study number, group number, and the starting date of the treatment. Animals were marked by ear coding. The experiments started one week after receiving the animals.
(§3) Each mouse were inoculated subcutaneously at the right flank region with NCI-H2122 tumor cells (5×10^7/ml), NCI-H1703 tumor cells (1×10^8/ml) and A431 tumor cells (5×10^7/ml), respectively in a mixture of phosphate-buffered saline and matrigel for tumor development via a 1 ml syringe. The treatments were started when the mean tumor size reached about 200 (150-250) mm^3.
(§4) To avoid errors between groups, the animals were first grouped by the tumor volumes according to the tumor volume measurements, and then randomly re-assigned to different groups.
(§5) During the study, the care and use of animals were conducted in accordance with the regulations of the Association for Assessment and Accreditation of Laboratory Animal Care (AAALAC). After tumor cell inoculation, the animals were checked daily for morbidity and mortality. At the time of routine monitoring, the animals were checked for any effects of tumor growth and treatments on normal behavior such as mobility, visual estimation of food and water consumption, body weight gain/loss, eye/hair matting and any other abnormal effect.
(§6) After tumor volume reached 3000 mm^3 or average tumor volume reached 2000 mm^3, before experimental animals emaciated or coma, anesthesia and euthanasia will be performed. During the experiment, if the weight loss of experimental animal reaches 20%, administration will be discontinued and experimental animals will be observed until the weight returned to 10% range before restart of the administration. In this experiment, when the mean tumor volume reached 2000 mm^3 or at the end of 59 days after the administration, experimental animals will be anesthesiaed to collect tumor mass which will be weighed and photographed.
(§7) • 8.1 Tumor size was measured twice weekly in two dimensions using a caliper, and the volume was expressed in mm^3 using the formula: V=0.5 a×b^2 where a and b are the long and short diameters of the tumor, respectively. • 8.2 T/C, percent value, T and C were the mean volume of the treated and control groups, respectively, on a given day. • 8.3 T−C, calculated with T as the time (in days) required for the mean tumor size of the treatment group to reach a predetermined size, and C was the time (in days) for the mean tumor size of the control group to reach the same size. • 8.4 (1−((Td−T0)/(Cd−C0)))×100% value (in percent) was an indication of antitumor effectiveness, Td and Cd were the mean tumor volumes of the treated and vehicle control animals on a given day and T0 and C0 were the mean tumor volumes of the treated and vehicle control animals at the start of the experiment. • 8.5 Tumor mass weight was measured at the end of study. 9. Statistical Analysis
(§8) A one-way analysis of variance was performed followed by multiple comparison procedures. […]

[3] = system: NCI-H2122 lung cancer xenograft; type: in vivo, BALB/c nude mice
Procedure: as §1, §2, §3, §4, §5, §6, §7, §8

[4] = system: BXPC-3 human pancreatic carcinoma xenograft; assay: BXPC-3 xenograft tumor model, subcutaneous; type: in vivo, BALB/c nude mice
Procedure: as §7
A one-way analysis of variance was performed followed by multiple comparison procedures. All data was analyzed using SPSS 18.0. *p<0.05 or **P<0.01 are generally considered statistically significant when compared with vehicle group.
BXPC-3 tumor cells cultured in RMPI1640 medium supplemented with 10% heat inactivated fetal bovine serum, all cells used EDTA containing trypsin, passaged twice a week, incubated at 37° C. in an atmosphere of 5% CO2 in air and cultured.
BALB/c nude mice, female, 6-8 weeks old, 18-22 g in body weight, were purchased from Shanghai Laboratory Animal Center (SLAC, Shanghai, China).
Each mouse was inoculated subcutaneously at the right flank region with BXPC-3 tumor cells (5×10^7) in 0.1 ml of phosphate-buffered saline with matrigel via a 1 ml syringe for tumor development. The treatments were started when the mean tumor size reaches approximately 200 (150-250) mm^3 at 9 days after inoculation.
Randomized grouping, observations, aseptic, data processing, measurement and statistical analysis are as described in Example 3.

[5] = Pharmacokinetic study of jervine in mice; type: in vivo; conditions: CD-1 mice, PO 10 mg/Kg
Procedure: Orally dosed: A total of 3 male experimental CD-1 mice, approximately 8 weeks of age at receipt was administered jervine via oral gavage at 10 mg/kg. Blood samples (300 μL) were collected via cardiac puncture predose and at 2 minute, 5 minute, 15 minute, 0.5 hour, 1 hour, 2 hour, 4 hour, 8 hour, 24 hours postdose. Plasma was made form the blood samples in order to measure the concentration of jervine.

[6] = MTD study of jervine; type: in vivo, BALB/c nude mice; conditions: 14 days
Procedure: 9 BALB/c nude mice were divided equally into 3 groups. The mice were orally dosed at 50 mg/kg, 80 mg/kg and 150 mg/kg by groups. […] It was initially determined that the MTD is higher than 80 mg/kg for BALB/c nude mice.

Structure (SMILES): CC1=C2C(=O)[C@H]3[C@@H](CC=C4C[C@@H](O)CC[C@@]43C)[C@@H]2CC[C@]12O[C@@H]1C[C@H](C)CN[C@H]1[C@H]2C [jervine]
- IC50 [1]: 50 nM
- T/C value ([2]; A431, 40 mg/kg p.o. QD × 21 days): 0.52
- T/C value ([2]; A431, 60 mg/kg p.o. QD × 21 days): 0.80
- T/C value ([2]; A431, 80 mg/kg p.o. QD × 21 days): 0.82
- T/C value ([3]; NCI-H2122, 40 mg/kg p.o. QD × 21 days): 0.79
- T/C value ([3]; NCI-H2122, 60 mg/kg p.o. QD × 21 days): 0.701
- T/C value ([3]; NCI-H2122, 80 mg/kg p.o. QD × 21 days): 0.594
- T/C value ([4]; BXPC-3, 20 mg/kg iv QD × 21 days): 25.8%
- T/C value ([4]; BXPC-3, 40 mg/kg iv QD × 21 days): 59.1%
- T/C value ([4]; BXPC-3, 80 mg/kg iv QD × 21 days): 54.2%
- tumor growth inhibition (in words) ([4]; BXPC-3 xenograft): significantly inhibit the growth of these three tumors; also recorded: effectively inhibit the tumor growth
- side effects / weight loss of the mice ([4]; BXPC-3 xenograft, during administration): no obvious side effects such as weight lose was observed; also recorded: no significant of weight lose
- F (bioavailability) [5]: 41.2%
- mortality ([6]; 50 mg/kg oral): no animal dead
- general condition of the mice ([6]; 80 mg/kg oral gavage): all mice were in good condition
- weight loss ([6]; 80 mg/kg oral gavage): no significant weight loss
- mortality ([6]; 80 mg/kg oral): no animal die
- mortality ([6]; 80 mg/kg oral, listed as Jervine): no animal dead
- mortality ([6]; 150 mg/kg oral): Two mice in the 150 mg/kg treatment group were dead
